One compound from the NIST ThermoML archive (doi:10.1021/je401066j) can be followed below.

SMILES strings stand for the structures. ± gives the expanded uncertainty stated by the source.

For this data set the following is noted: 101 kPa, Liquid mixture 1, Drop volume.

As for `CCCCCC` [hexane] + O, the interfacial tension by setting is: (288.2 K) 51.4 ± 0.4 mN/m; (293.2 K) 51 ± 0.4 mN/m; (298.2 K) 50.7 ± 0.4 mN/m; (303.2 K) 50.4 ± 0.4 mN/m; (308.2 K) 50.2 ± 0.4 mN/m.
